# Measured values as given in US4866206A, “2-Halomethyl derivatives of 2-amino acids” (Merrell Dow France et Cie, priority 1988, dated 1989).
# Read-outs that look alike come from different tables or passages of the source.
# Legend:
# [1] = molecular target: T1, rat liver ornithine decarboxylase (Rattus norvegicus, UniProt P09057); assay: time-dependent inhibition of rat liver ODC (in vitro); format: biochemical
# T1 construct: rat liver ornithine decarboxylase in vitro; from tissue; host or cells: rat liver
# T1 sequence (P09057 1-461): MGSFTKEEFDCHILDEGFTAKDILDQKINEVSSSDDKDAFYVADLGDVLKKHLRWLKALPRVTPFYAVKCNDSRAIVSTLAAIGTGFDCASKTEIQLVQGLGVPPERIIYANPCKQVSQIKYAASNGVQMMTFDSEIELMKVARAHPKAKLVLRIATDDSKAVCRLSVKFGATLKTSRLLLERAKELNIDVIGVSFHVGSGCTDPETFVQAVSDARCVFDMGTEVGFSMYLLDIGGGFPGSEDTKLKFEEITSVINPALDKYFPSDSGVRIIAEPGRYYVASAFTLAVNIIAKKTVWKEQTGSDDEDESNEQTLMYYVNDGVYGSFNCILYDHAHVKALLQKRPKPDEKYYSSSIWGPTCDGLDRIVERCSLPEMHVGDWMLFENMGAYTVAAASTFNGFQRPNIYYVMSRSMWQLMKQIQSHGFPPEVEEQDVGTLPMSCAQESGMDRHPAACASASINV
# ornithine decarboxylase = molecular target: T2, ornithine decarboxylase (Rattus norvegicus, UniProt P09057); assay: ODC activity remaining in rat tissues after a single dose (in vivo); parameters: species or system rats
# T2 construct: from tissue; host or cells: rat ventral prostate and thymus
# T2 sequence (P09057 1-461): T1 sequence (P09057 1-461)
# Method: The ODC inhibitory activity of a compound can be determined in vitro by the method described by B. Metcalf et al., J. Am. Chem. Soc., 100, 2551 (1978) and in vivo by the method of C. Danzin, Life Sciences, 24, 519 (1979).
# 2-Fluoromethyl-2,5-diaminopentanoic acid and 2-fluoromethyl-2,6-diaminohexanoic acid were tested for inhibition of ornithine decarboxylase in rats according to the procedure of C. Danzin et al., Life Sciences, 24, 519 (1979).
# prostatic growth in rats = assay: effect on prostatic growth in rats; format: in vivo; conditions: for % Weight loss of prostate: oral administration for 3 days
# Text: Accordingly, the compounds of Formula I can be used as contragestational agents (abortifacients) in female animals when it is desired to terminate early pregnancy. The use of 2-fluoromethyl-2,5-diaminopentanoic acid, and derivatives thereof, as a contragestational agent is described and claimed in U.S. Pat. No. 4,309,442 of P. Bey and M. Jung. […] Danzin et al., Biochem. J., 202, 175 (1982). Accordingly, the compounds of Formula I can be used to treat benign prostatic hypertrophy. The use of 2-fluoromethyl-2,5-diaminopentanoic acid, and derivatives thereof, in the treatment of benign prostatic hypertrophy is described and claimed in the U.S. Pat. No. 4,330,559 of P. Bey and M. Jung.
# 2-Fluoromethyl-2,5-diaminopentanoic acid was tested for its effect on prostatic growth in rats according to the procedure of C. Danzin et al., Biochem. J., 202, 175 (1982).
# (a) Administered dissolved in drinking water employed as only water source for the animals.
# ODC of P. aeruginosa = molecular target: T3, ODC of P. aeruginosa (Pseudomonas aeruginosa, UniProt Q9HVQ3); assay: ODC inhibition in intact P. aeruginosa cells; format: cell-based; conditions: in words
# T3 sequence (Q9HVQ3 1-387): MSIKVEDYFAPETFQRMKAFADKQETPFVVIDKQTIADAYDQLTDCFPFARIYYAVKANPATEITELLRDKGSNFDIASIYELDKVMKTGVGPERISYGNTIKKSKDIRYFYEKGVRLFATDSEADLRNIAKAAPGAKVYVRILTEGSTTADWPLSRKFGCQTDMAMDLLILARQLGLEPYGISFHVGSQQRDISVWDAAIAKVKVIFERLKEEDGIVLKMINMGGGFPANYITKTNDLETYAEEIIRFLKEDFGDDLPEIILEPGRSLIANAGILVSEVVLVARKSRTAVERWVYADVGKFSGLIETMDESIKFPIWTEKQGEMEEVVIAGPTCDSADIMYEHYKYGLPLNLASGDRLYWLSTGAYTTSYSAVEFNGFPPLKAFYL
# Text: However, by itself, α-MFMO has no effect on cell growth. Thus, […] inhibitory activity is useful only when used in combination with agents which will block other routes of polyamine biosynthesis, e.g. with both (a) α-difluoromethyl arginine, which inhibits arginine decarboxylase, and (b) dicyclohexylammonium sulfate, which inhibits spermidine synthesis.
# female mice = assay: contragestational activity in mice; format: in vivo; conditions: for Resorption nodules gravid female / Viable feti gravid female: autopsy day 18
# Method: 2-Fluoromethyl-2,5-diaminopentanoic acid (MFM) was tested for contragestational activity in mice according to the procedure of J. Fozard et al., Eur. J. Pharmacol., 65, 379 (1980).
# In this experiment, the compound was given at the doses stated, subcutaneously (s.c.), every 6 hours starting at 12:00 on day 8 of gestation (4 doses). Animals were autopsied on day 18 and the numbers of viable feti and resorption nodules recorded.
# E. coli ODC [2] = molecular target: T4, E. coli ODC (Escherichia coli, UniProt P21169); assay: time-dependent inhibition of bacterial ODC (in vitro), E. coli; format: biochemical, Escherichia coli (M.R.C. 59); parameters: supernatant (approximately 16 mg protein/ml), used for the measurement of ornithine decarboxylase; endogenous in cells; host or cells: Escherichia coli M.R.C; 59, supernatant of sonicated cells
# Method: (§1) 2-Fluoromethyl-2,5-diaminopentanoic acid (MFMO) was tested for in vitro inhibition of ornithine decarboxylase from Escherichia coli and from Pseudomonas aeruginosa according to the procedure described as follows:
# (§2) Escherichia coli (M.R.C. 59) and Pseudomonas aeruginosa (A.T.C.C. 9027) were grown as described by Kallio et al., Biochem. J., 200, 69 (1981) in minimal medium [Davis et al., J. Bacteriol., 60, 17 (1950)] at 37° C. Cells were harvested by centrifugation (10 minutes at 10,000 g) and washed once with phosphate-buffered saline, pH 7.2 (0.125M NaCl, 10 mM Na2 HPO4, and 3 mM KH2 PO4). The cell pellet was suspended in 10 mM Tris/HCl (pH 7.5) containing 1 mM dithiothreitol and 0.1 mM EDTA and disrupted by sonication with a Branson Cell Disruptor 350 (5×30 sec, setting 3). Cell debris was removed by centrifugation at 25,000 g for 30 minutes and the supernatant (approximately 16 mg protein/ml), used for the measurement of ornithine decarboxylase, was stored frozen at -20° C. without appreciable loss of activity.
# (§3) Ornithine decarboxylase activity was measured by the release of ^14 Co2. Assays contained 100 mM tris/HCl (pH 8.25 for E. coli and pH 7.5 for P. aeruginosa), 0.04 mM pyridoxal phosphate, 1mM dithiotheritol, 10 mM L-ornithine, 2.5 μCi D,L-[1-^14 C]ornithine and 80-120 μg bacterial protein in a total volume of 1 ml. […]
# (§4) Time dependent irreversible inhibition of ornithine decarboxylase was determined according to the method of Kallio et al., Biochem. J., 200, 69 (1981). […] At selected times, 20 μl aliquots of the enzyme incubate were removed and transferred to the reaction flasks in which ODC activity was determined. […] The flasks were kept on ice until all time points were taken and then D,L-[1-^14 C]-ornithine was added and ODC activity was determined at 37° C. […]
# (§5) Kinetic parameters for the inhibition of ODC were determined as described by Kitz, J. Biol. Chem., 237, 3245 (1962) as modified by Jung et al., Biochem. Biophys. […]
# E. coli ODC [3] = molecular target: T4, E. coli ODC; format: cell-based
# [4] = test system: P. aeruginosa (A.T.C.C. 9027); assay: growth and polyamine content of P. aeruginosa cultures; format: cell-based; conditions: compound by itself
# P. aeruginosa ODC = molecular target: T5, P. aeruginosa ODC (Pseudomonas aeruginosa, UniProt Q9HVQ3); assay: time-dependent inhibition of bacterial ODC (in vitro), P. aeruginosa; format: biochemical
# T5 construct: 14CO2 release from ornithine
# T5 sequence (Q9HVQ3 1-387): T3 sequence (Q9HVQ3 1-387)
# Method: as §1, §2, §3, §4, §5
# E. coli (M.R.C; 59) = assay: growth and polyamine content of E. coli cultures; format: cell-based; conditions: compound by itself
# [5] = concentration of compound which gives half-maximal rate of inhibition, time-dependent inhibition
# [6] = half-life of inhibition at 10 μM inhibitor
# [7] = half-life of inhibition at infinite concentration of inhibitor
# [8] = 50 mg/kg s.c. every 6 hours from day 8 of gestation (4 doses)
# [9] = 100 mg/kg s.c. every 6 hours from day 8 of gestation (4 doses)
# [10] = 200 mg/kg s.c. every 6 hours from day 8 of gestation (4 doses)
# [11] = 400 mg/kg s.c. every 6 hours from day 8 of gestation (4 doses)
# [12] = 6 hours after single oral dose, 12.5 mg/kg
# [13] = 6 hours after single oral dose, 25 mg/kg
# [14] = 6 hours after single oral dose, 50 mg/kg
# [15] = 6 hours after single oral dose, 100 mg/kg
# T4 sequence (P21169 whole entry): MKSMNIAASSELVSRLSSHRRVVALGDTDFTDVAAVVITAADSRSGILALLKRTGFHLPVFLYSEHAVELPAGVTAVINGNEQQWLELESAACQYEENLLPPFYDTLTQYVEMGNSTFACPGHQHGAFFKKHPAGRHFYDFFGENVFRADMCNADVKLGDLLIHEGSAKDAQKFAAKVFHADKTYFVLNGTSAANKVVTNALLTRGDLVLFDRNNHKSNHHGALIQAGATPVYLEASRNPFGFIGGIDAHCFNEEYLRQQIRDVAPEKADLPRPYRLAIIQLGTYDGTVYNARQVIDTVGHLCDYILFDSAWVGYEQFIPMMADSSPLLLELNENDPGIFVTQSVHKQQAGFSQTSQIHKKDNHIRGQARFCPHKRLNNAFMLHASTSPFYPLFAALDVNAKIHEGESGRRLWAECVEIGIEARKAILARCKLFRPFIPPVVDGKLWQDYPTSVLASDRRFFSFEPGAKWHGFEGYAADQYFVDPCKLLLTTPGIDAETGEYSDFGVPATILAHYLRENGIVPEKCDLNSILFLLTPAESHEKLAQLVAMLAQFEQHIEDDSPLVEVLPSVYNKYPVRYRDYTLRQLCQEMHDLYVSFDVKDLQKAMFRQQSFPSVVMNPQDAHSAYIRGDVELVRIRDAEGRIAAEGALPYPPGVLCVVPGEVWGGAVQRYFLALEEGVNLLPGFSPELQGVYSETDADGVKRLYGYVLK
compound,measurement,setting,value
"NCCCCC(N)(CCl)C(=O)O (stereo not drawn) [MCML, 2-chloromethyl-2,6-diaminohexanoic acid]",T1/2,[1],no apparent saturation
same,t1/2 at 10 μM,[1],62 min
"NCCCC(N)(CCl)C(=O)O (stereo not drawn) [MCMO, 2-chloromethyl-2,5-diaminopentanoic acid]",K I,[1]; [5],no apparent saturation
same,t1/2 at 10 μM,[1]; [6],22 min
same,T1/2,[1]; [7],no apparent saturation
"NCCCCC(N)(CF)C(=O)O (stereo not drawn) [MFML, 2-fluoromethyl-2,6-diaminohexanoic acid]",Ki,[1]; [5],430 µM
same,t1/2 at 10 μM,[1]; [6],88 min
same,T1/2,[1]; [7],2.0 min
same,ODC Activity remaining in ventral prostate,"ornithine decarboxylase; single oral dose 200 mg/kg, 3 h",66 ± 6 % Control
same,ODC Activity remaining in ventral prostate,"ornithine decarboxylase; single oral dose 200 mg/kg, 6 h",44 ± 10 % Control
same,ODC Activity remaining in ventral prostate,"ornithine decarboxylase; single oral dose 200 mg/kg, 12 h",74 ± 7 % Control
"NCCCC(N)(CF)C(=O)O (stereo not drawn) [MFMO, 2-Fluoromethyl-2,5-diaminopentanoic acid]",% Weight loss of prostate,prostatic growth in rats; 3.75 g/l in drinking water,-10%
same,% Weight loss of prostate,prostatic growth in rats; 7.5 g/l in drinking water,-14%
same,% Weight loss of prostate,prostatic growth in rats; 15 g/l in drinking water,-19%
same,weight of the ventral prostate,"prostatic growth in rats; rats, method of Danzin",significant decrease
same,inhibition of ODC of P. aeruginosa in intact cells,ODC of P. aeruginosa,inhibit
same,Ki,[1]; [5],75 µM
same,t1/2 at 10 μM,[1]; [6],14 min
same,T1/2,[1]; [7],1.6 min
same,Resorption nodules gravid female,female mice; [8],3.3 ± 1.1
same,Viable feti gravid female,female mice; [8],9.1 ± 1.5
same,Resorption nodules gravid female,female mice; [9],2.3 ± 0.6
same,Viable feti gravid female,female mice; [9],12.7 ± 0.9
same,Resorption nodules gravid female,female mice; [10],4.2 ± 1.2
same,Viable feti gravid female,female mice; [10],9.2 ± 1.5
same,Resorption nodules gravid female,female mice; [11],8.9 ± 1.9
same,Viable feti gravid female,female mice; [11],5.4 ± 1.5
same,interruption of embryogenesis,"female mice; female mice, method of Fozard",capable of interrupting embryogenesis
same,Ki,"E. coli ODC [2]; E. coli ODC, concentration giving half-maximal rate of inhibition, 20° C., pH 8.25",360 µM
same,T1/2,"E. coli ODC [2]; E. coli ODC, half-life at infinite concentrations",12 min
same,inhibition of ODC of E. coli in vitro,"E. coli ODC [2]; in vitro, in words",inhibit
same,inhibition at 2000 µM,E. coli ODC [3]; bacteria grown in the presence of 2 mM of the compound,99%
same,inhibition of ODC of E. coli in intact cells,"E. coli ODC [3]; intact cells, in words",inhibit
same,effect on cell growth,[4],no effect
same,Ki,"P. aeruginosa ODC; P. aeruginosa ODC, concentration giving half-maximal rate of inhibition, 20° C., pH 7.5",300 µM
same,T1/2,"P. aeruginosa ODC; P. aeruginosa ODC, half-life at infinite concentrations",12 min
same,inhibition of ODC of P. aeruginosa in vitro,"P. aeruginosa ODC; in vitro, in words",inhibit
same,effect on cell growth,E. coli (M.R.C; 59),no effect
same,ODC Activity remaining in ventral prostate,"ornithine decarboxylase; 5 hours after single i.p. injection, 12.5 mg/kg",70.5 ± 12.5 % Control
same,ODC Activity remaining in ventral prostate,"ornithine decarboxylase; 5 hours after single i.p. injection, 25 mg/kg",77.0 ± 10.5 % Control
same,ODC Activity remaining in ventral prostate,"ornithine decarboxylase; 5 hours after single i.p. injection, 50 mg/kg",57.0 ± 13.0 % Control
same,ODC Activity remaining in ventral prostate,"ornithine decarboxylase; 5 hours after single i.p. injection, 100 mg/kg",14.5 ± 10.0 % Control
same,ODC Activity remaining in ventral prostate,"ornithine decarboxylase; 5 hours after single i.p. injection, 200 mg/kg",15.5 ± 1.0 % Control
same,ODC Activity remaining in thymus,ornithine decarboxylase; [12],81 ± 6 % Control
same,ODC Activity remaining in ventral prostate,ornithine decarboxylase; [12],98 ± 18 % Control
same,ODC Activity remaining in thymus,ornithine decarboxylase; [13],93 ± 8 % Control
same,ODC Activity remaining in ventral prostate,ornithine decarboxylase; [13],67 ± 7 % Control
same,ODC Activity remaining in thymus,ornithine decarboxylase; [14],99 ± 5 % Control
same,ODC Activity remaining in ventral prostate,ornithine decarboxylase; [14],45 ± 7 % Control
same,ODC Activity remaining in thymus,ornithine decarboxylase; [15],87 ± 6 % Control
same,ODC Activity remaining in ventral prostate,ornithine decarboxylase; [15],44 ± 6 % Control
